Measurements published in PubChem BioAssay (NCI).
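Cultured in 96-well plates, cells were exposed to test compound for 48 hours across five concentrations. TGI is the concentration that stops growth completely.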

What was measured:
Experiment in all cases: growth of human tumour cells (NCI), 48 h
CAKI-1 renal = system: CAKI-1 renal
NCI-H226 lung = system: NCI-H226 lung
U251 CNS = system: U251 CNS
786-0 renal = system: 786-0 renal
MCF7 breast = system: MCF7 breast
BT-549 breast = system: BT-549 breast
HCT-15 colon = system: HCT-15 colon
NCI/ADR-RES ovarian = system: NCI/ADR-RES ovarian
SF-295 CNS = system: SF-295 CNS
HS 578T breast = system: HS 578T breast
HT29 colon = system: HT29 colon
SF-268 CNS = system: SF-268 CNS
UACC-62 melanoma = system: UACC-62 melanoma
HCT-116 colon = system: HCT-116 colon
HL-60(TB) leukemia = system: HL-60(TB) leukemia
OVCAR-4 ovarian = system: OVCAR-4 ovarian
SR leukemia = system: SR leukemia
HOP-92 NSCLC = system: HOP-92 NSCLC
A549 NSCLC = system: A549 NSCLC

Row | SMILES | TGI (CAKI-1 renal) [µM] | TGI (NCI-H226 lung) [µM] | TGI (U251 CNS) [µM] | TGI (786-0 renal) [µM] | TGI (MCF7 breast) [µM] | TGI (BT-549 breast) [µM] | TGI (HCT-15 colon) [µM] | TGI (NCI/ADR-RES ovarian) [µM] | TGI (SF-295 CNS) [µM] | TGI (HS 578T breast) [µM] | TGI (HT29 colon) [µM] | TGI (SF-268 CNS) [µM] | TGI (UACC-62 melanoma) [µM] | TGI (HCT-116 colon) [µM] | TGI (HL-60(TB) leukemia) [µM] | TGI (OVCAR-4 ovarian) [µM] | TGI (SR leukemia) [µM] | TGI (HOP-92 NSCLC) [µM] | TGI (A549 NSCLC) [µM]
1 | COc1ccc(C2OC(N)=C(C#N)C3=C2CCCC3C)cc1OC (configuration not stated) | > 100 | > 100 | > 100 | > 100 | > 100 | > 100 | > 100 | > 100 | > 100 | > 100 | > 100 | > 100 | > 100 | > 100 | > 100 | – | – | – | –
2 | Cc1c(C)n(-c2ccccc2)c2nc(S(C)(=O)=O)nc(S(C)(=O)=O)c12 | 1.55 | 47.4 | 11.2 | 2.55 | 2.79 | – | 3.31 | 59.9 | 31.1 | > 85.5 | 3.74 | 31.1 | 17.6 | 2.98 | 3.35 | 3.13 | 2.46 | 3.2 | 30.4
3 | C/C(=N/NC(=S)Nc1ccc(Cl)cc1)c1cccc(/C(C)=N\NC(=S)Nc2ccc(Cl)cc2)n1 | 39.4 | 47.5 | 60.3 | 21 | 9.25 | – | > 100 | 91.3 | 29.6 | – | > 100 | 58.1 | 43.1 | 22.4 | – | > 100 | 7.25 | > 100 | 53.2
4 | COC1=CC2C(c3cc4ccccc4n3S(=O)(=O)c3ccccc3)CC1CN2C(=O)OCc1ccccc1 (configuration not stated) | > 100 | > 100 | > 100 | > 100 | > 100 | 75.1 | > 100 | > 100 | > 100 | > 100 | 65.1 | – | > 100 | > 100 | 41.9 | > 100 | – | – | > 100
5 | O=C(Oc1ccccc1)N1c2ccccc2[C@@]23O[C@]24CCC[C@H]3C#C/C=C\C#C[C@H]14 | 25.7 | 38.1 | 30.3 | 22.2 | – | 25.5 | 25.9 | 33.2 | 30.9 | 47.1 | 23.2 | 43.2 | 23.6 | 24.2 | 26.1 | 23.3 | 41.1 | 27 | 25
6 | CC1C[C@]2(C)C(=NCCN)Nc3ccccc3[C@@H]2N(C)c2ccccc21 (some centres not stated) | 31.3 | 30.2 | – | 24.6 | 21.3 | – | 34.5 | 59 | 32 | 38.2 | 13.2 | 30.4 | 28.1 | 21 | 36 | 30.4 | 8.73 | 9.49 | 31.6
7 | CC(C)(C)OC(=O)NC(Cc1ccc(OC(C)(C)C)cc1)C(=O)N[C@H]1CCC[C@H]1C(=O)NC(Cc1ccccc1)C(=O)N1CCCC1C(N)=O (some centres not stated) | > 100 | > 100 | > 100 | > 100 | > 100 | – | > 100 | > 100 | > 100 | > 100 | > 100 | > 100 | > 100 | > 100 | – | > 100 | > 100 | > 100 | > 100
